Laboratory results reported in US7125849B2, “Peptide-based angiogenesis inhibitors and methods of use thereof” (The Scripps Research Institute, priority 2003, dated 2006).
No end group written: not given here.

Tests used:
endothelial cells = assay: Contractility on flexible silicone rubber substrates (wrinkle assay); type: cell-based; details: about 10 μM, FIG. 4
Source text: Contractility. To visualize cell contractility, flexible rubber substrates were generated as described by Bussolino et al., J. Biol. Chem., 1989, 264:18284–18287. Briefly, silicone rubber (polydimethylsiloxane), having a viscosity of about 10000 centistokes (Dow Corning Co.) was applied to the coverslip at the bottom of 35 mm tissue culture dishes and coated with a thin layer of gold-palladium using a Hummer VI sputter coater, which polymerized a thin layer of silicon rubber. The surface was additionally coated with about 2 μg/ml of fibronectin (FN). Treated and un-treated endothelial cells were plated on the rubber substrate and allowed to adhere. Cells that had wrinkled the substrate beneath were visualized for about 4 hours and then scored by time-lapse phase contrast microscopy. Following this period, the cells were treated with Cytochalasin D (about 1 μg/ml) (Molecular Probes) to release all wrinkles that were due to actin-dependent cell tension.
To examine effects on contractility, cells were plated on elastic substrata, as described above, that can be pulled into wrinkles by cell-generated forces.

HMEC-1 cells = assay: Endothelial cell migration by time lapse imaging
Method: Microscopy. To assay migration, HMEC-1 cells were treated with various concentrations of either PRO polypeptide or mutant peptide prior to plating. Cells were plated on coverslips coated with about 2 μg/ml of fibronectin (FN). Dishes containing coverslips were prepared as described by Kiosses et al., and maintained at a temperature of about 37° C., under an atmosphere containing about 5% carbon dioxide as described by Schwartz, J. Cell Biol., 1993, 120:1003–1010. The cells were viewed with a Nikon DiaPhot Microscope equipped with a SenSys cooled CCD video camera linked to a Silicon Graphics workstation running the Inovision ISEE software program. At the end of the experiment, images of each cell were outlined and the centroid (cell center) calculated. Displacement of the centroid was then used to determine movement of the cell over time. Statistical analysis was performed using Microsoft EXCEL statistics software. Approximately 50 cells were filmed and tracked per experiment, with at least 3 independent experiments for both the PRO and the mutant peptide. Results were expressed as means±standard error of the mean. The Students t-test was used to determine whether the observed differences were statistically significant (p=0.05).

[1] = tested on: chorioallantoic membrane (CAM) of chick embryos; assay: Chick CAM in vivo angiogenesis assay (bFGF-induced); details: bFGF filters, examined 3 days later, compared to untreated filters, FIG. 6
Method: Chick Cam Assays. In vivo angiogenesis assays were performed essentially as previously described by Brooks, et al., Cell, 1994, 79:1157–1164, the relevant disclosures of which are incorporated herein by reference. Filter discs saturated with 1.0 ug/ml bFGF were placed on the chorioallantoic membranes (CAMs) of 10-day-old chicken embryos, immediately followed by daily topical addition of either a PRO inhibitory peptide (20 μgs) or a control peptide ([…]) in 20 μl of fibroblast growth medium (FGM). After 72 hours, the filter discs and associated CAM tissue were harvested and quantified. Angiogenesis was assessed as the number of visible blood vessel branch points within the defined area of the filter discs. At least 20 CAMs were used for each treatment.
New blood vessels invade the filter dishes within 2–5 days, and angiogenesis can be readily detected. Filters without any additions, with control or with the PRO compound of Example 1 were implanted and examined 3 days later.

Nck = biological target: T1, Nck (Homo sapiens, UniProt P16333); assay: Affinity chromatography of endothelial cell extracts on peptide-agarose, western blot with anti-Nck; type: binding; details: detergent extracts of human endothelial cells
T1 construct: endogenous in cells; host or cells: human endothelial cells (cell type for this assay not further specified)
Method: Affinity Chromatography. PRO or control peptides containing an N-terminal cysteine were dissolved in about 1 ml of coupling buffer (50 mM tris pH 8.0, 5 mM EDTA) and about 0.5 ml at about 3 mg/ml peptide added to about 2 ml of activated thiol-Sepharose (Pharmacia). Samples were incubated at a temperature of about 4° C. overnight with 1% β-mercaptoethanol added to block unreacted sites. Beads were rinsed and stored at a temperature of about 4° C. Endothelial cell cultures in 15 cm dishes were extracted in about 1.0 ml of cold (about 4° C.), lysis buffer (20 mM pH 7.4 sodium phosphate, 100 mM NaCl, 1% Triton X-100, 10 mM NaF, 2 mM EDTA, 1 mM sodium orthovanadate, 1 mM PMSF, 10 μg/ml each of leupeptin and aprotinin). The extracts were centrifuged for about 10 minutes at top speed in a microfuge and the supernatants were then removed. A 0.5 ml sample of each extract was incubated with about 10 μl of packed beads for about 1 hour, with rotation at a temperature of about 4° C. The beads were rinsed with lysis buffer (about 4×0.5 ml) and dissolved in SDS sample buffer (about 0.04 ml). Samples were analyzed by SDS PAGE on 10% gels and immunoblotting with anti-NCK (Santa Cruz) and HRP-protein A as secondary, and then were developed and detected using enhanced chemiluminescence (ECL kit, Amersham). […]

[2] = tested on: Human umbilical vein endothelial cells (HUVECs); assay: In vitro tube formation assay in 3-dimensional matrix; type: cell-based; details: about 48 hours
Source text: Formation of Three-dimensional Collagen Gels. Collagen gels were formed by mixing ice-cold gelation solution (10× M199, H2O, 0.53 mol/L NaHCO3, 200 mmol/L L-glutamine, type I collagen, 0.1 mol/L NaOH; 100:27.7:50:10:750:62.5 by volume) with cells in 1×-basal medium at a concentration of about 3×10^6 cells/ml at a ratio of about 4 volumes of gelation solution to about 1 volume of cells by the method of Yang et al. Am. J. Pathol., 1999, 155:[…] (hereinafter “Yang et al.”). The gels were allowed to form by incubation in a CO2-free incubator at a temperature of about 37° C. for about 30–60 minutes. […]
Quantification of Tube Formation. […] The total length of each tube or the long axis of single cells or groups of adjacent cells was measured, and the raw data was imported into a Microsoft Excel spread sheet. The mean tube length was determined for each well, followed by determination of the mean data and SEM for each experimental group.
As an initial test of the PRO effect on endothelial cell behavior in 3-dimensional matrices, in vitro tube formation assays in matrigel were carried out. […] Tube formation was quantitated by determining the length of endothelial cell tubes.

| Substance | Cell contractility (wrinkles of elastic substratum) (endothelial cells) | Endothelial cell migration rate (HMEC-1 cells; about 10 μM peptide, time lapse imaging, FIG. 3A) | Angiogenesis in CAM (vascular branch points) [1] | Binding of Nck from endothelial cell lysates (Nck) | Migration rates over the time course (argues against toxicity) (HMEC-1 cells; FIG. 3B) | Cell number [2] | Morphology of individual cells [2] |
| --- | --- | --- | --- | --- | --- | --- | --- |
| SEQ ID NO: 5: control peptide in which the first two prolines of SEQ ID NO: 4 were replaced by the amino acids A and G (YGRKKRRQRRRGKAGAPPMRNTSTM; fusion protein fragment) | had no effect | no significant effect on migration | essentially no effect | no detectable Nck was bound | – | – | – |
| YGRKKRRQRRRGKPPAPPMRNTSTM [SEQ ID NO: 4] | – | – | – | – | essentially constant | nor was cell number greatly altered | not noticeably perturbed |
